Experimental data published in patent EP4800012A1, “COMPOUND ACTING AS PARP7 INHIBITOR” (Dovetree Medicines Unus, Inc., priority 2023, dated 2025).

Columns and labels:
PARP7 [1] = biological target: T1, PARP7 (Homo sapiens, UniProt Q7Z3E1); assay: Inhibition of the compound on PARP7 protein activity (ADP-ribosylation, chemiluminescence); format: biochemical; details: Histone H1 coated plate, Biotin-Labeled NAD+, 2 h at room temperature, chemiluminescence; read-out: PARP7 activity inhibition IC50
T1 construct: purchased BPS 80527
T1 sequence (Q7Z3E1 1-657): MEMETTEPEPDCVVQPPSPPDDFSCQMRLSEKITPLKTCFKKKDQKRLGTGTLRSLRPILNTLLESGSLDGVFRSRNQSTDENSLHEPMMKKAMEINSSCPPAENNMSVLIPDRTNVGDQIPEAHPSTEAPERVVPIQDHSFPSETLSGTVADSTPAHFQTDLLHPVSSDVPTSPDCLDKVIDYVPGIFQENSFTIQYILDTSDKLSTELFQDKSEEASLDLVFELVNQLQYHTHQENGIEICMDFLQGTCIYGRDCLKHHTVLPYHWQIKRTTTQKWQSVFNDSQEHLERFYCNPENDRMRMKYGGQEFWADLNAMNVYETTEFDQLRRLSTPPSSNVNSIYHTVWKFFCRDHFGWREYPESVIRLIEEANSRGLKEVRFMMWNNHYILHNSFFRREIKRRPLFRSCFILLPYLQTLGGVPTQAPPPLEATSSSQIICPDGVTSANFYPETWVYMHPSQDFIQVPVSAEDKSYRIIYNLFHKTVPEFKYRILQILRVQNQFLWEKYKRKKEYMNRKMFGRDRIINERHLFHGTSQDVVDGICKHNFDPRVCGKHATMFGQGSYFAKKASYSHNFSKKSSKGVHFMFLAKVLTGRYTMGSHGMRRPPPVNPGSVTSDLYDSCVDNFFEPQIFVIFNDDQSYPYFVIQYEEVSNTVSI

NCI-H1373 cells = assay: Inhibition on NCI-H1373 cell proliferation (Cell-Titer-Glo); format: cell-based; details: Homo sapiens, 144 h; NCI-H1373 cells, incubation for 6 days, Cell-Titer-Glo; read-out: NCI-H1373 cell proliferation inhibition IC50
Description: The inhibitory effect of the compound on PARP7 was evaluated by testing the inhibitory effect of the compound on NCI-H1373 cell proliferation.
NCI-H1373 cells (ATCC, CRL-5866) were cultured in a complete medium, namely, a RPMI-1640 medium (Gibco, 22400089) containing 10% fetal bovine serum (Corning, 35-081-CV).
Negative control wells and positive control wells were added with 50 nL DMSO (Sigma, D2650), respectively.
In "Day 0" detection plate, NCI-H1373 cells were seeded at a density of 600 cells/well (50 µL) in a complete medium into the Day 0 test wells of a 384-well detection plate (Grenier, 781091). Then, 25 µL of Cell-Titer-Glo reagent (Promega, G7573) was added to each well, followed by centrifugation at 1000 rpm at room temperature for 1 minute and incubation at room temperature under shaded conditions for 10 min. Chemiluminescence signals were collected using an Envision (Perkin Elmer, EnVision 2105) to obtain the average value of the Day 0 test values.
In "compound detection plate", NCI-H1373 cells were seeded at a density of 600 cells/well (50 µL) in a complete medium into the negative control wells and the compound detection wells of a 384-well detection plate (Grenier, 781091), and 50 µL of cell culture medium was added to the positive control wells, followed by centrifugation at 1000 rpm at room temperature for 1 minute and placing in a cell incubator at 37°C, 5% CO2 for incubation for 6 days. […] Chemiluminescence signals were collected using an Envision (Perkin Elmer, EnVision 2105). The test values for each compound well, negative control well, and positive control well were obtained.
The proliferation inhibition ratio formula is as follows: [formula]
The average value of the negative control = the average value of the Day 6 test values of each negative control well minus the average value of the Day 0 test values
The average value of the positive control = the average value of the Day 6 test values of each positive control well
The average value of the compound test = (the Day 6 test value of compound test well 1 + the Day 6 test value of compound test well 2)/2 - the average value of the Day 0 test values

PARP7 [2] = biological target: T1, PARP7; assay: PARP7 TR-FRET binding inhibition (displacement of probe RBN011147); details: TR-FRET, Biotin-labeled probe RBN011147; read-out: PARP7 binding inhibition IC50
Description: The ability of the compound to substitute the probe RBN011147 (Wigle et al., 2020, Cell Chemical Biology 27, 877-887) was tested by a TR-FRET method, and IC50 was calculated to evaluate the binding ability of the compound to PARP7. […]

IC50 (PARP7 [1]) [nM]	IC50 (NCI-H1373 cells) [nM]	IC50 (PARP7 [2]) [nM]	SMILES
< 3	1000 to 3000	< 10	CC(CCCNC(=O)c1ccc(-c2ncc(C(F)(F)F)cn2)cc1O)Nc1cn[nH]c(=O)c1C(F)(F)F (stereo not drawn) [Example 1]
< 3	300 to 1000	< 10	CC(CCCNC(=O)c1ccc(-c2ncc(C(F)(F)F)cn2)cc1F)Nc1cn[nH]c(=O)c1C(F)(F)F (stereo not drawn) [Example 2]
< 3	300 to 1000	< 10	CC(CCCNC(=O)c1ccc(-c2ncc(C(F)(F)F)cn2)cc1)Nc1cn[nH]c(=O)c1C(F)(F)F (stereo not drawn) [Example 3]
< 3	> 3000	10 to 30	CC(CCCNC(=O)c1cccc2c1CCN2c1ncc(C(F)(F)F)cn1)Nc1cn[nH]c(=O)c1C(F)(F)F (stereo not drawn) [Example 5]
–	> 3000	30 to 100	CC(CCNC(=O)c1n[nH]c2cc(-c3ncc(C(F)(F)F)cn3)ccc12)Nc1cn[nH]c(=O)c1C(F)(F)F (stereo not drawn) [Example 7]
–	> 3000	10 to 30	CC(CCNC(=O)c1n[nH]c2c1CCN(c1ncc(C(F)(F)F)cn1)C2)Nc1cn[nH]c(=O)c1C(F)(F)F (stereo not drawn) [Example 8]
3 to 10	–	10 to 30	O=C(CCc1c[nH]c(=O)c2ccccc12)Nc1ccc(-c2ncc(C(F)(F)F)cn2)cc1 [Example 12]
–	> 3000	10 to 30	Cc1cnc(-c2cnc(C(=O)NCCCC(C)Nc3cn[nH]c(=O)c3C(F)(F)F)cn2)s1 (stereo not drawn) [Example 24]
30 to 100	–	> 100	Cc1cc(NC(C)CCCN(C)C(=O)c2ccc(-c3ncc(C(F)(F)F)cn3)cc2O)c(C#N)c(=O)[nH]1 (stereo not drawn) [Example 33]
30 to 100	–	> 100	CC(CCCN(C)C(=O)c1cnc(N2CCOCC2)cn1)Nc1cn[nH]c(=O)c1C(F)(F)F (stereo not drawn) [Example 36]
> 100	–	> 100	CC(CCCN(C)C(=O)c1cnc(N2CCN(C3CC3)CC2)cn1)Nc1cn[nH]c(=O)c1C(F)(F)F (stereo not drawn) [Example 37]
30 to 100	–	> 100	Cc1cc(NCCCC(C)NC(=O)c2cnc(-c3ncc(C(F)(F)F)cn3)cn2)c(C#N)c(=O)[nH]1 (stereo not drawn) [Example 49]
> 100	–	> 100	CC(CCCNC(=O)c1ccc(-c2ncc(C(F)(F)F)s2)cc1F)Nc1cc[nH]c(=O)c1C#N (stereo not drawn) [Example 71]
–	< 300	< 10	CC(CCCNC(=O)c1ccc(-c2cc(C(F)(F)F)sn2)cc1)Nc1cn[nH]c(=O)c1C(F)(F)F (stereo not drawn) [Example 83]
–	–	> 100	O=C(NCC1CC(Nc2cn[nH]c(=O)c2C(F)(F)F)C1)c1ccc(-c2ncc(C(F)(F)F)s2)cc1 (stereo not drawn) [Example 129]
–	–	> 100	O=C(NCCC1CC(OC2CC2)CN1c1cn[nH]c(=O)c1C(F)(F)F)c1ccc(-c2ncc(C(F)(F)F)s2)cn1 (stereo not drawn) [Example 138]
–	–	> 100	CC(CC1CN(C(=O)c2ccc(-n3cc(C(F)(F)F)cn3)cc2)C1)Nc1cn[nH]c(=O)c1C(F)(F)F (stereo not drawn) [Example 218]
–	–	> 100	O=C(c1ccc(-c2ncc(C(F)(F)F)s2)cc1)N1CC2(CC(Nc3cn[nH]c(=O)c3C(F)(F)F)C2)C1 [Example 219]
–	< 300	< 10	O=C(NCCC[C@@H](Nc1cn[nH]c(=O)c1C(F)(F)F)C(=O)N1CCC2(CC2)C1)c1ccc(-c2ncc(C(F)(F)F)s2)cc1 [Example 220]
–	< 300	< 10	C[C@@H]1CCN(C(=O)[C@@H](CCCNC(=O)c2ccc(-c3ncc(C(F)(F)F)s3)cc2)Nc2cn[nH]c(=O)c2C(F)(F)F)C1 [Example 225]

IC50 (PARP7 [1]) [nM]	IC50 (NCI-H1373 cells) [nM]	IC50 (PARP7 [2]) [nM]	SMILES
–	–	> 100	O=C(NCC1CC(Nc2cn[nH]c(=O)c2C(F)(F)F)C1)c1ccc(-c2ncc(C(F)(F)F)cn2)cc1 (stereo not drawn) [Example 226]
–	< 300	< 10	CC1(NC(=O)[C@@H](CCCNC(=O)c2ccc(-c3ncc(C(F)(F)F)s3)cc2)Nc2cn[nH]c(=O)c2C(F)(F)F)CCOCC1 [Example 227]
–	300 to 1000	< 10	O=C(NCCC[C@@H](Nc1cn[nH]c(=O)c1C(F)(F)F)C(=O)Nc1cccnc1)c1ccc(-c2ncc(C(F)(F)F)s2)cc1 [Example 234]
–	300 to 1000	10 to 30	O=C(NCCC[C@@H](Nc1cn[nH]c(=O)c1C(F)(F)F)C(=O)N1CCSCC1)c1ccc(-c2ncc(C(F)(F)F)s2)cc1 [Example 236]
–	> 3000	10 to 30	C[C@H]1CCN1C(=O)[C@@H](CCCNC(=O)c1ccc(-c2ncc(C(F)(F)F)s2)cc1)Nc1cn[nH]c(=O)c1C(F)(F)F [Example 240]
–	> 3000	30 to 100	Cc1c(-c2cnc(C(F)(F)F)s2)ncn(CCCC(C)Nc2cn[nH]c(=O)c2C(F)(F)F)c1=O (stereo not drawn) [Example 248]
–	> 3000	30 to 100	NC(=O)c1cccc2cn(CCCNC(=O)c3ncc(-c4ncc(C(F)(F)F)s4)cc3F)nc12 [Example 249]
–	> 3000	10 to 30	CC(CCCn1ccc2cc(-c3ncc(C(F)(F)F)cn3)cnc2c1=O)Nc1cn[nH]c(=O)c1C(F)(F)F (stereo not drawn) [Example 250]
–	> 3000	> 100	CC(COCc1cc(-c2cnc(C(F)(F)F)nc2)sn1)Nc1cn[nH]c(=O)c1C(F)(F)F (stereo not drawn) [Example 251]
–	> 3000	> 100	NC(=O)c1cccc2cn(CCCn3cnc4cc(-c5ncc(C(F)(F)F)cn5)c(F)cc4c3=O)nc12 [Example 252]
–	1000 to 3000	< 10	CC(CCCn1ccc2cc(-c3ncc(C(F)(F)F)s3)cnc2c1=O)Nc1cn[nH]c(=O)c1C(F)(F)F (stereo not drawn) [Example 253]
–	–	> 100	NC(=O)c1cccc2cn(CCCn3ccc4cc(-c5ncc(C(F)(F)F)cn5)c(F)cc4c3=O)nc12 [Example 254]
–	300 to 1000	< 10	COC1CCN(C(=O)[C@@H](CCCNC(=O)c2ccc(-c3ncc(C(F)(F)F)s3)cc2)Nc2cn[nH]c(=O)c2C(F)(F)F)CC1 [Example 255]
–	300 to 1000	< 10	COC1CN(C(=O)[C@@H](CCCNC(=O)c2ccc(-c3ncc(C(F)(F)F)s3)cc2)Nc2cn[nH]c(=O)c2C(F)(F)F)C1 [Example 256]
–	< 300	< 10	Cc1cccc(NC(=O)[C@@H](CCCNC(=O)c2ccc(-c3ncc(C(F)(F)F)s3)cc2)Nc2cn[nH]c(=O)c2C(F)(F)F)n1 [Example 257]
–	< 300	< 10	CC(C)NC(=O)[C@@H](CCCNC(=O)c1ccc(-c2ncc(C(F)(F)F)s2)cc1)Nc1cn[nH]c(=O)c1C(F)(F)F [Example 258]
–	< 300	< 10	CCN(C)C(=O)[C@@H](CCCNC(=O)c1ccc(-c2ncc(C(F)(F)F)s2)cc1)Nc1cn[nH]c(=O)c1C(F)(F)F [Example 259]
–	1000 to 3000	10 to 30	N#C[C@@H]1CCCN(C(=O)[C@@H](CCCNC(=O)c2ccc(-c3ncc(C(F)(F)F)s3)cc2)Nc2cn[nH]c(=O)c2C(F)(F)F)C1 [Example 260]
–	300 to 1000	30 to 100	N#CC1CCN(C(=O)C(CCCNC(=O)c2ccc(-c3ncc(C(F)(F)F)s3)cc2)Nc2cn[nH]c(=O)c2C(F)(F)F)C1 (stereo not drawn) [Example 261]
–	< 300	10 to 30	CC[C@@H]1CN(C(=O)[C@@H](CCCNC(=O)c2ccc(-c3ncc(C(F)(F)F)s3)cc2)Nc2cn[nH]c(=O)c2C(F)(F)F)CCO1 [Example 262]
